Results from patent EP2518054A1, “AMIDE COMPOUND” (Takeda Pharmaceutical Company Limited, priority 2009, dated 2011).

Biological target: T1, human GPR52 (Homo sapiens, UniProt Q9Y2T5)
T1 construct: expressed in transfected cells; host or cells: CHO(dhfr-) cells
Assay: Increase of intracellular cAMP concentration in human GPR52-expressing CHO cell (AlphaScreen cAMP assay)
Format: cell-based
Conditions: human GPR52-expressing CHO(dhfr-) cells; for activity at 1 µM: CHO, read-out: GPR52 agonist activity (%); for EC50: concentration of the test compound at which it shows 50% activity, read-out: GPR52 agonist activity EC50
Protocol: Increase of intracellular cAMP concentration in human GPR52-expressing CHO cell
Using OptiPlate-384 (PerkinElmer Inc.), 1×10^4 human GPR52-expressing CHO(dhfr-) cells were incubated together with various concentration(10^-5µM - 10µm) of a test compound in an assay buffer (30 µL, HBSS (containing Ca^2+ and Mg^2+), 0.5% BSA, 100 µM IBMX, 100 µM Ro20-1724, 5 mM HEPES (pH 7.55)) at 37°C for 30 min. Thereafter, according to the protocol of AlphaScreen CAMP Assay Kit (PerkinElmer Inc.), the intracellular cAMP concentration was measured by EnVision (PerkinElmer Inc.). The GPR52 agonist activity was calculated, assuming the intracellular cAMP concentration in the presence of […] N-(2-hydroxyethyl)-3-[2-[3-(trifluoromethyl)benzyl]-1-benzofuran-4-yl]benzamide (Reference Example 79) to be 100% and assuming the intracellular cAMP concentration when DMSO was added instead of the test compound to be 0%.

[1] = 1µM test compound, 100% = cAMP with 1 µM Reference Example 79, 0% = DMSO, 37°C, 30 min

T1 sequence (Q9Y2T5 whole entry): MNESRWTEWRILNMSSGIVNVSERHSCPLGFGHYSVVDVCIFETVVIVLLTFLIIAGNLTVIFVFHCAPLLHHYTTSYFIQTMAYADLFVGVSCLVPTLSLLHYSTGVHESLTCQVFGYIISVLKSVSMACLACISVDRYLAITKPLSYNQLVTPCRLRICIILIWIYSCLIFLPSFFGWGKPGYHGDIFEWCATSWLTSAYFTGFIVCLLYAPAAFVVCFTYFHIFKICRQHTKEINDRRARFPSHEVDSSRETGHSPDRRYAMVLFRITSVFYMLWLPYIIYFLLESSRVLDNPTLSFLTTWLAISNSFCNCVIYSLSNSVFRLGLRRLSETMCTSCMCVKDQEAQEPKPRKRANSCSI

| activity at 1 µM [1] [%] | EC50 [nM] | GPR52 agonist activity (%) [1] [%] | Compound |
| --- | --- | --- | --- |
| 96 | – | – | COCCNC(=O)c1c(C)nn(-c2cccc3cc(Cc4cc(F)cc(Cl)c4)sc23)c1C [Example 57, 1-[2-(3-chloro-5-fluorobenzyl)-1-benzothiophen-7-yl]-N-(2-methoxyethyl)-3,5-dimethyl-1H-pyrazole-4-carboxamide] |
| 93 | – | – | Cc1nn(-c2ccc(F)c3cc(Cc4cc(F)cc(Cl)c4)sc23)c(C)c1C(=O)NCC(N)=O [Example 59, N-(2-amino-2-oxoethyl)-1-[2-(3-chloro-5-fluorobenzyl)-4-fluoro-1-benzothiophen-7-yl]-3,5-dimethyl-1H-pyrazole-4-carboxamide] |
| 99 | – | – | Cc1nn(-c2ccc(F)c3cc(Cc4cc(F)cc(Cl)c4)sc23)c(C)c1C(=O)NCCO [Example 60, 1-[2-(3-chloro-5-fluorobenzyl)-4-fluoro-1-benzothiophen-7-yl]-N-(2-hydroxyethyl)-3,5-dimethyl-1H-pyrazole-4-carboxamide] |
| 93 | – | – | Cc1nn(-c2ccc(F)c3cc(Cc4cccc(C(F)(F)F)c4)sc23)c(C)c1C(N)=O [Example 61, 1-[4-fluoro-2-[3-(trifluoromethyl)benzyl]-1-benzothiophen-7-yl]-3,5-dimethyl-1H-pyrazole-4-carboxamide] |
| 105 | – | – | Cc1nn(-c2ccc(F)c3cc(Cc4cccc(C(F)(F)F)c4)sc23)c(C)c1C(=O)NCCO [Example 62, 1-[4-fluoro-2-[3-(trifluoromethyl)benzyl]-1-benzothiophen-7-yl]-N-(2-hydroxyethyl)-3,5-dimethyl-1H-pyrazole-4-carboxamide] |
| 94 | – | – | Cc1nn(-c2cccc3cc(Cc4cccc(C(F)(F)F)c4)sc23)c(CO)c1C(=O)NCC(N)=O [Example 63, N-(2-amino-2-oxoethyl)-5-(hydroxymethyl)-3-methyl-1-[2-[3-(trifluoromethyl)benzyl]-1-benzothiophen-7-yl]-1H-pyrazole-4-carboxamide] |
| 97 | 18 | – | Cc1nn(-c2cccc3cc(Cc4cccc(C(F)(F)F)c4)sc23)c(CO)c1C(N)=O [Example 64, 5-(hydroxymethyl)-3-methyl-1-[2-[3-(trifluoromethyl)benzyl]-1-benzothiophen-7-yl]-1H-pyrazole-4-carboxamide] |
| 89 | – | – | COCCNC(=O)c1c(C)nn(-c2cccc3cc(Cc4cccc(C(F)(F)F)c4)sc23)c1CO [Example 66, 5-(hydroxymethyl)-N-(2-methoxyethyl)-3-methyl-1-[2-[3-(trifluoromethyl)benzyl]-1-benzothiophen-7-yl]-1H-pyrazole-4-carboxamide] |
| 83 | – | – | Cc1c(C(=O)NCCO)c(CO)nn1-c1cccc2cc(Cc3cccc(C(F)(F)F)c3)sc12 [Example 67, N-(2-hydroxyethyl)-3-(hydroxymethyl)-5-methyl-1-[2-[3-(trifluoromethyl)benzyl]-1-benzothiophen-7-yl]-1H-pyrazole-4-carboxamide] |
| 88 | 170 | – | Cc1c(C(=O)NCC(N)=O)c(CO)nn1-c1cccc2cc(Cc3cccc(C(F)(F)F)c3)sc12 [Example 68, N-(2-amino-2-oxoethyl)-3-(hydroxymethyl)-5-methyl-1-[2-[3-(trifluoromethyl)benzyl]-1-benzothiophen-7-yl]-1H-pyrazole-4-carboxamide] |
| 78 | – | – | Cc1c(C(N)=O)c(CO)nn1-c1cccc2cc(Cc3cccc(C(F)(F)F)c3)sc12 [Example 69, 3-(hydroxymethyl)-5-methyl-1-[2-[3-(trifluoromethyl)benzyl]-1-benzothiophen-7-yl]-1H-pyrazole-4-carboxamide] |
| 91 | – | – | COCc1c(C(=O)NCCO)c(C)nn1-c1cccc2cc(Cc3cccc(C(F)(F)F)c3)sc12 [Example 70, N-(2-hydroxyethyl)-5-(methoxymethyl)-3-methyl-1-[2-[3-(trifluoromethyl)benzyl]-1-benzothiophen-7-yl]-1H-pyrazole-4-carboxamide] |
| 114 | 27 | – | Cc1nn(-c2ccc(F)c3cc(Cc4cccc(C(F)(F)F)c4)sc23)c(CO)c1C(=O)NCCO [Example 71, 1-[4-fluoro-2-[3-(trifluoromethyl)benzyl]-1-benzothiophen-7-yl]-N-(2-hydroxyethyl)-5-(hydroxymethyl)-3-methyl-1H-pyrazole-4-carboxamide] |
| 96 | – | – | Cc1nn(-c2ccc(F)c3cc(Cc4cccc(C(F)(F)F)c4)sc23)c(CO)c1C(=O)NCC(N)=O [Example 72, N-(2-amino-2-oxoethyl)-1-[4-fluoro-2-[3-(trifluoromethyl)benzyl]-1-benzothiophen-7-yl]-5-(hydroxymethyl)-3-methyl-1H-pyrazole-4-carboxamide] |
| 97 | – | – | Cc1nn(-c2ccc(F)c3cc(Cc4cccc(C(F)(F)F)c4)sc23)c(CO)c1C(N)=O [Example 73, 1-[4-fluoro-2-[3-(trifluoromethyl)benzyl]-1-benzothiophen-7-yl]-5-(hydroxymethyl)-3-methyl-1H-pyrazole-4-carboxamide] |
| 98 | – | – | Cc1nn(-c2cccc3oc(Cc4cccc(C(F)(F)F)c4)cc23)c(C)c1C(=O)NCC(N)=O [Example 74, N-(2-amino-2-oxoethyl)-3,5-dimethyl-1-[2-[3-(trifluoromethyl)benzyl]-1-benzofuran-4-yl]-1H-pyrazole-4-carboxamide] |
| 101 | 30 | – | Cc1nn(-c2cccc3oc(Cc4cccc(C(F)(F)F)c4)cc23)c(C)c1C(=O)NCCO [Example 75, N-(2-hydroxyethyl)-3,5-dimethyl-1-[2-[3-(trifluoromethyl)benzyl]-1-benzofuran-4-yl]-1H-pyrazole-4-carboxamide] |
| 95 | – | – | Cc1nn(-c2cccc3oc(Cc4cccc(C(F)(F)F)c4)cc23)c(C)c1C(N)=O [Example 76, 3,5-dimethyl-1-[2-[3-(trifluoromethyl)benzyl]-1-benzofuran-4-yl]-1H-pyrazole-4-carboxamide] |
| 104 | – | – | Cc1nn(-c2cccc3nn(Cc4cccc(C(F)(F)F)c4)cc23)c(C)c1C(N)=O [Example 78, 3,5-dimethyl-1-[2-[3-(trifluoromethyl)benzyl]-2H-indazol-4-yl]-1H-pyrazole-4-carboxamide] |
| 102 | – | – | Cc1nn(-c2cccc3nn(Cc4cccc(C(F)(F)F)c4)cc23)c(C)c1C(=O)NCCO [Example 79, N-(2-hydroxyethyl)-3,5-dimethyl-1-[2-[3-(trifluoromethyl)benzyl]-2H-indazol-4-yl]-1H-pyrazole-4-carboxamide] |
| 98 | – | – | Cc1nn(-c2cccc3nn(Cc4cccc(C(F)(F)F)c4)cc23)c(C)c1C(=O)NCC(N)=O [Example 80, N-(2-amino-2-oxoethyl)-3,5-dimethyl-1-[2-[3-(trifluoromethyl)benzyl]-2H-indazol-4-yl]-1H-pyrazole-4-carboxamide] |
| 102 | – | – | Cc1nn(-c2cccc3nn(Cc4cc(F)cc(Cl)c4)cc23)c(C)c1C(N)=O [Example 81, 1-[2-(3-chloro-5-fluorobenzyl)-2H-indazol-4-yl]-3,5-dimethyl-1H-pyrazole-4-carboxamide] |
| 105 | – | – | Cc1nn(-c2cccc3nn(Cc4cc(F)cc(Cl)c4)cc23)c(C)c1C(=O)NCCO [Example 82, 1-[2-(3-chloro-5-fluorobenzyl)-2H-indazol-4-yl]-N-(2-hydroxyethyl)-3,5-dimethyl-1H-pyrazole-4-carboxamide] |
| 104 | – | – | Cc1nn(-c2cccc3nn(Cc4cc(F)cc(C(F)(F)F)c4)cc23)c(C)c1C(N)=O [Example 83, 1-[2-[3-fluoro-5-(trifluoromethyl)benzyl]-2H-indazol-4-yl]-3,5-dimethyl-1H-pyrazole-4-carboxamide] |
| 105 | – | – | Cc1nn(-c2cccc3nn(Cc4cc(F)cc(C(F)(F)F)c4)cc23)c(C)c1C(=O)NCCO [Example 84, 1-[2-[3-fluoro-5-(trifluoromethyl)benzyl]-2H-indazol-4-yl]-N-(2-hydroxyethyl)-3,5-dimethyl-1H-pyrazole-4-carboxamide] |
| 85 | – | 102 | Cc1nc(-c2cccc3nn(Cc4cc(F)cc(C(F)(F)F)c4)cc23)sc1C(N)=O [Example 86, 2-[2-[3-fluoro-5-(trifluoromethyl)benzyl]-2H-indazol-4-yl]-4-methyl-1,3-thiazole-5-carboxamide] |
| 92 | – | – | O=C(NCCO)c1sc(-c2cccc3cc(Cc4cccc(C(F)(F)F)c4)sc23)nc1C(F)(F)F [Example 87, N-(2-hydroxyethyl)-4-(trifluoromethyl)-2-[2-[3-(trifluoromethyl)benzyl]-1-benzothiophen-7-yl]-1,3-thiazole-5-carboxamide] |
| 83 | – | – | O=C(NCCO)c1sc(-c2cccc3nn(Cc4cccc(C(F)(F)F)c4)cc23)nc1C(F)(F)F [Example 88, N-(2-hydroxyethyl)-4-(trifluoromethyl)-2-[2-[3-(trifluoromethyl)benzyl]-2H-indazol-4-yl]-1,3-thiazole-5-carboxamide] |
| 99 | – | – | Cc1nn(-c2ccc(F)c3cc(Cc4cc(F)cc(Cl)c4)sc23)c(CO)c1C(=O)NCC(N)=O [Example 89, N-(2-amino-2-oxoethyl)-1-[2-(3-chloro-5-fluorobenzyl)-4-fluoro-1-benzothiophen-7-yl]-5-(hydroxymethyl)-3-methyl-1H-pyrazole-4-carboxamide] |
